# Results as given in PMC11280065, “^64Cu^2+ Complexes of Tripodal Amine Ligands’ In Vivo Tumor and Liver Uptakes and Intracellular Cu Distribution in the Extrahepatic Bile Duct Carcinoma Cell Line TFK-1: A Basic Comparative Study” (Pharmaceuticals, 2024).
# Key:
# [1] = test system: mice bearing TFK-1-RFP cells; settings: mean ± SD
# TFK-1 cells = assay: Micro-PIXE analysis of intracellular Cu distribution; type: cell-based, human; settings: compared among the three Cu2+ complexes and Cu2+ ions, no significant differences
# Description: A positive correlation was observed between in vitro whole-cell uptake and in vivo tumor uptake (R = 0.992, p = 0.00772) (Figure S2). Similarly, we observed a consistent correlation between in vitro nuclear uptake and in vivo tumor uptake (417.6 counts ± 150.02 for Cu^2+-Tren, 203.00 counts ± 25.13 for Cu^2+-Dien, 94.82 counts ± 48.07 for Cu^2+-TPMA, and 35.57 counts ± 25.02 for Cu^2+ ions) (p < 0.05).
# The human extrahepatic bile duct carcinoma cell line TFK-1 was obtained from the RIKEN Bioresource Research Center (Ibaraki, Japan) and immediately expanded and frozen in our laboratory. […] Exponentially growing cells were detached from plates using trypsin (0.5 w/v% Trypsin-5.3 mmol/L EDTA·4Na Solution without Phenol Red (×10), Fujifilm Wako Pure Chemical Corporation, Osaka, Japan), and the number of viable cells was determined using the trypan blue dye (Bio-Rad, Hercules CA, USA) exclusion method.
# A micro-PIXE analysis was carried out at the QST Electrostatic Accelerator Facility. […] Cells were subsequently stained with DAPI (4′,6-diamidino-2-phenylindole; Bio-Rad, Hercules, CA, USA) for nuclear localization and observed under a fluorescence microscope (BZ-X810, Keyence, Osaka, Japan). […] Distributions of Cu, P, K, Ca, Al, Fe, and S in each group were determined using Kα lines. […] Nuclei localization was determined via fluorescence microscope images of DAPI staining. […]
smiles,measurement,setting,value
[Cl-].[Cl-].[Cu+2].c1ccc(CN(Cc2ccccn2)Cc2ccccn2)nc1 [Cu^2+-TPMA],tumor uptake,"[1]; TFK-1-RFP-xenografted SCID beige mice, 2.5 h after intravenous injection of 1.85 MBq, n = 3–4/group",7.56 ± 0.41 %ID/g
NCCNCCN.[Cl-].[Cl-].[Cu+2] [Cu^2+-Dien],urinary excretion,"[1]; urine collected during the 2.5 h post-administration, intravenous, TFK-1-RFP-xenografted mice",1.68 ± 0.46 %ID
NCCN(CCN)CCN.[Cl-].[Cl-].[Cu+2] [Cu^2+-Tren],percentage counts of nuclear uptake/whole-cell uptake,TFK-1 cells,highest average value
